According to US20240287074A1, “SALTS AND CRYSTALS” (Kinoxis Therapeutics Pty Ltd, priority 2020, published 2024):
Values after ≈ are worked out from the molar mass of the structure shown. “Also recorded” adds a separate entry of the source. Counter-ions that a name gives are not always drawn. Like-named read-outs stand apart in the source and are kept apart here.

Legend:
Format in all cases: physicochemical
[1] = 1-week stability studies (XRPD, HPLC)
Experimental: The isolated 1-methyl-1,4,5,10-tetrahydropyrazolo[3,4-b][1,5]benzodiazepine freebase was characterized by TG/DTA, DSC, DVS with post-DVS, XRPD, HPLC, ^1H NMR and LC-MS, as per the methods detailed above. The 1-methyl-1,4,5,10-tetrahydropyrazolo[3,4-b][1,5]benzodiazepine freebase was stored at 40° C./75% relative humidity (RH) for 1 week to determine the stability of the material at increased RH and to identify potential hydrate formation.
One-week stability studies were conducted on the freebase (example 1), phosphate form 1 (example 3) and L-tartrate form 1 (example 5) salts using the following procedures: • Approximately 20 mg of each form was weighed into 3×2 mL glass vials. • One vial for each form was stored under the following conditions for 1-week: • 1. Ambient temperature, light and humidity (unsealed vial) • 2. 40° C./75% RH (unsealed vial) • 3. 80° C. (sealed vial) • The samples were collected after 1-week and observations were made. • The solids were analyzed by XRPD and HPLC.

[2] = Hydration studies in methanol/water mixtures; conditions: MeOH/water mixtures, water activity 0.2, 0.6, 0.8, about 24 hours
Experimental: (§1) The following procedure was used during the hydration studies: • Approximately 20 mg of phosphate form 1 (Example 3) and L-tartrate form 1 (Example 5) were weighed into 2 mL glass vials. • Selected methanol/deionized water mixtures (see Table 5) were added to each sample in 100 μL aliquots until a mobile slurry was observed. • The slurries were agitated at ambient temperature for about 24 hours. • The slurries were collected and filtered via centrifugation. • The isolated solids were analyzed by XRPD. • The pH of the mother liquors were recorded.

[3] = Thermodynamic solubility in PBS buffer pH 7.4; conditions: for solubility: PBS buffer at pH 7.4, ambient temperature, about 24 hours, HPLC; for pH (t = 24 h): mother liquor of PBS pH 7.4 slurry
Experimental: The thermodynamic solubility of freebase (example 1), phosphate form 1 (example 3) and L-tartrate form 1 (example 5) were assessed in phosphate buffered saline (PBS) buffer at pH 7.4 according to the following procedure: • Approximately 30 mg of each form was weighed into 2 mL glass vials. • 100 μL of buffer solution was added to each vial until partial dissolution was observed. • The observed slurries were agitated at ambient temperature for about 24 hours. • The samples were collected, and observations were recorded. • The samples were filtered via centrifugation. • The pH of the mother liquors were recorded. • The concentration of the mother liquors were recorded by HPLC.

[4] = Salt disproportionation studies in deionized water; conditions: about 24 hours; for salt disproportionation: slurry in deionized water, ambient temperature
Experimental: as §1, with “salt disproportionation” for “hydration”, “Deionized” for “Selected methanol/deionized”, “was” for “mixtures (see Table 5) were”

[5] = Dynamic / gravimetric vapour sorption (DVS/GVS) hygroscopicity; conditions: for hygroscopicity: DVS, 25° C.
Experimental: Approximately, 10-20 mg of sample was placed into a mesh vapour sorption balance pan and loaded into a DVS Intrinsic dynamic vapour sorption balance by Surface Measurement Systems. The sample was subjected to a ramping profile from 40-90% relative humidity (RH) at 10% increments, maintaining the sample at each step until a stable weight had been achieved (dm/dt 0.004%, minimum step length 30 minutes, maximum step length 500 minutes) at 25° C. After completion of the sorption cycle, the sample was dried using the same procedure to 0% RH and then a second sorption cycle back to 40% RH. Two cycles were performed. The weight change during the sorption/desorption cycles were plotted, allowing for the hygroscopic nature of the sample to be determined. XRPD analysis was then carried out on any solid retained.
Approximately 10-20 mg of sample was placed into a mesh vapour sorption balance pan and loaded into an IGASorp Moisture Sorption Analyser balance by Hiden Analytical. The sample was subjected to a ramping profile from 40-90% relative humidity (RH) at 10% increments, maintaining the sample at each step until a stable weight had been achieved (98% step completion, minimum step length 30 minutes, maximum step length 60 minutes) at 25° C. After completion of the sorption cycle, the sample was dried using the same procedure to 0% RH, and finally taken back to the starting point of 40% RH. Two cycles were performed. The weight change during the sorption/desorption cycles were plotted, allowing for the hygroscopic nature of the sample to be determined.

[6] = Primary salt screen: XRPD pattern after drying and after 40° C./75% RH
Experimental: The following procedure was used: • Approximately 30 mg of 1-methyl-1,4,5,10-tetrahydropyrazolo[3,4-b][1,5]benzodiazepine freebase was weighed into 5×1.5 mL glass vials. • 300 μL of selected solvent system was added to each vial to form a mobile slurry, and a beige slurry was observed. • 1.05 (or 0.525 for the hemi experiments) equivalents of acid counterion (see Table 1) was added to each sample and initial observations were recorded. • The samples were temperature cycled between ambient and 40° C. in 4-hour cycles for about 72 hours. • The samples were collected, and observations made. • Samples in which solids were observed were filtered via centrifugation and the solids were loaded onto a multi-well XRPD plate and analyzed by XRPD. • Samples in which no solids were observed were uncapped and left undisturbed to allow evaporation at ambient temperature.

[7] = 1 week, ambient temperature, light and humidity, 40° C./75% RH, 80° C.

Cn1ncc2c1Nc1ccccc1NC2 [L-tartrate form 1, L-tartaric acid addition salt of 1-methyl-1,4,5,10-tetrahydropyrazolo[3,4-b][1,5]benzodiazepine]
changes in form by XRPD [1, 7]: no changes in form
changes in purity by HPLC [1, 7]: did not identify any significant changes in purity
change in XRPD pattern [2]: No change in XRPD pattern
hydrate formation [2]: Hydrate formation was not observed
hydrate formation ([2]; listed as L-tartrate): No evidence
solubility [3]: 6300 µg/mL
pH (t = 24 h) [3]: 3.36
change in XRPD pattern ([4]; material slurried in water): No change in XRPD pattern
salt disproportionation [4]: Salt disproportionation was not observed
salt disproportionation ([4]; listed as L-tartrate): No evidence
change in form by XRPD post-DVS analysis [5]: No evidence of form changes or hydrate formation
hygroscopicity [5]: slightly hygroscopic
hygroscopicity ([5]; listed as L-tartrate salt): slightly hygroscopic
DVS mass increase ([5]; at 90% RH): about 0.6%
DVS mass increase ([5]; at 90% RH, listed as L-tartrate salt): about 0.6 wt. %
change in form by XRPD post-DVS analysis ([5]; listed as L-tartrate salt): no changes in form
thermal stability and hygroscopicity ([6]; conclusion of salt screen): acceptable thermal stability and hygroscopicity
Post-Drying (XRPD pattern) ([6]; oven at 40° C. for about 24 hours, listed as Tartrate pattern 1): Pattern 1
Comments (stability) ([6]; salt screen summary): Good
Post 40° C./75% RH (XRPD pattern) ([6]; stability chamber at 40° C./75% RH for about 24 hours, listed as Tartrate pattern 1): Pattern 1

Cn1ncc2c1Nc1ccccc1NC2 [freebase, 1-Methyl-1,4,5,10-tetrahydropyrazolo[3,4-b][1,5]benzodiazepine]
changes in form or purity ([1]; 1 week at 40° C./75% RH and 80° C.): no changes in form or purity
XRPD diffractogram after storage ([1]; 1 week under ambient conditions (temperature, light, humidity)): An additional peak was observed
changes in pattern/form by XRPD post-storage ([1]; 40° C./75% RH for 1 week): No significant changes in pattern; also recorded: no changes in form
stability under ambient light ([1]; conclusion of 1-week stability study): may be unstable under ambient light
changes in purity by HPLC ([1]; stored under ambient conditions): did not show any significant changes in purity
solubility [3]: 300 µg/mL (≈ 1500 µM)
pH (t = 24 h) [3]: 7.32
change in form by XRPD post-DVS analysis [5]: No change in form
hygroscopicity by DVS ([5]; above 70% RH): hygroscopic
DVS mass increase ([5]; between 0 and 70% RH): about 0.11%
hygroscopicity by DVS ([5]; between 0 and 70% RH): non-hygroscopic
DVS mass increase ([5]; between 70 and 90% RH): about 2.74%
